Source: patent US9060945B2, “Use of danielone and derivatives thereof in skin care” (DSM IP Assets B.V., priority 2012, dated 2015)

Assays:
Assay type in all cases: cell-based
[1] = system: Normal human melanocytes NHM (HEMn-MP); assay: Effect on melanogenesis, comparative example (melanin synthesis in cell culture); conditions: for skin whitening activity (in words): at all three concentrations tested; for % melanin inhibition: 3 days, 405 nm
Protocol: Normal human melanocytes NHM (HEMn-MP) were seeded in 96 well cell culture plates (20′000 cells per well) and grown to sub-confluence for three days in a 1:2 mixture of M2-Medium (Clonetics) and Promocell-Medium together ‘Culture medium’. Culture medium was exchanged with Culture Medium containing compound and melanogenesis progressed for another three days at a temperature of 37° C. and at 5% CO2 atmosphere. Including cell layer and culture supernatant total melanin was extracted using 1.7M KOH with shaking at 300 rpm for approximately 1 hour at RT. We measured melanin content at 405 nm in an absorbance plate reader. The experiment was done in triplicates. We used PTU as a positive control.

[2] = system: Normal human melanocytes moderately pigmented (HEMn-MP); assay: Cytotoxicity, MTT assay; conditions: 3 days incubation, OD 550 nm
Protocol: Cytotoxicity was measured using the MTT assay (Roche). In brief: Normal human melanocytes moderately pigmented (HEMn-MP) were precultured for 24 hrs, and then incubated with compounds for three days. We then added MTT (Roche) labeling reagent 10 μl to each well (final concentration 0.5 mg/ml) and incubated the microtiterplate for 4 hrs at 37° C., and under 5% CO2. After addition of 100 μl solubilisation solution into each well, the plate was allowed to stand overnight in the incubator (37° C., 5% CO2. The absorbance OD 550 nm was measured in an absorbance plate reader (ELX 800 BIO-TEK Instrument) and the data is shown in Table 1.

[3] = system: Normal human melanocytes moderately pigmented (HEMn-MP); assay: Quantification of melanin synthesis in cell culture; conditions: 3 days, baseline = 100, 405 nm
Protocol: Normal human melanocytes moderately pigmented (HEMn-MP) were seeded in 96 well cell culture plates (20′000 cells per well) and grown to sub-confluence for three days in a 1:2 mixture of M2-Medium (Clonetics) and Promocell-Medium together ‘Culture medium’. Culture medium was exchanged with Culture Medium containing compound and melanogenesis progressed for another three days in an incubator at a temperature of 37° C. and at 5% CO2 atmosphere. Including cell layer and culture supernatant total melanin was extracted using 1.7M KOH with shaking at 300 rpm for approximately 1 hour at room temperature. We measured melanin content at 405 nm in an absorbance plate reader. We use phenylthiourea (PTU) as a positive control at a concentration of 0.0152% (1 mM). PTU is a tyrosinase inhibitor (Poma 1999) and is commonly used as a reference in cell pigmentation assays (see e.g. Le Pape 2008).

[4] = system: Human melanocytes moderately pigmented (HEMn-MP); assay: Cell-pellet depigmentation assay; conditions: scale 1 to 5 (5 = dark control cell pellet, 1 = very light brown cell pellet)
Protocol: Human melanocytes moderately pigmented (HEMn-MP) were seeded in 6-well culture plates at a cell density of 2×10E5 cells/mL and preincubated for three days in a 1:2 mixture of M2-Medium (Clonetics) and Promocell-Medium together ‘Culture medium’ in an incubator at a temperature of 37° C. and at 5% CO2 Atmosphere. Culture medium was exchanged with Culture Medium containing compound and melanogenesis progressed for another three days in an incubator at same incubation conditions as described above. Compound dilutions were done in duplicates. Cells were harvested after trypsinization and pooled in eppendorf-tubes, centrifugated and supernatant removed. The remaining cell pellet was photographed and visually checked for whitening effects. The pellets were scored for their darkness in a scale 1 to 5 (5 corresponding to dark control cell pellet) and 1 corresponding to a very light brown cell pellet.

## COc1cc(C(=O)CCO)ccc1O [beta-hydroxypropiovanillon, reference compound]
[1]
  skin whitening activity (in words): no activity
[1]; concentration 0.0025%
  % melanin inhibition: 7.45%
[1]; concentration 0.005%
  % melanin inhibition: 7.45%
[1]; concentration 0.01%
  % melanin inhibition: 4.26%

## COc1cc(C(=O)CO)cc(OC)c1O [Danielone, 2-hydroxy-1-(4-hydroxy-3,5-dimethoxy-phenyl)-ethanone]
[2]; concentration 0.00025 %
  Viability: 112%
[2]; concentration 0.0025 %
  Viability: 113%
[2]; concentration 0.025 %
  Viability: 51%
[3]; concentration 0.000625 %
  Total melanin: 104%
[3]; concentration 0.00125 %
  Total melanin: 75%
[3]; concentration 0.0025 %
  Total melanin: 66%
[4]; 0.0025%
  Darkness level of the cell pellet: 2
[1]
  skin whitening activity (in words): very efficient
[1]; concentration 0.0025%
  % melanin inhibition: 1.51%
[1]; concentration 0.005%
  % melanin inhibition: −40.20%
[1]; concentration 0.01%
  % melanin inhibition: −49.25%

## NC(=S)Nc1ccccc1 [PTU, phenylthiourea, reference compound]
[3]; concentration 0.0152 % (1 mM)
  Total melanin: 58%
[4]; 0.0152%
  Darkness level of the cell pellet: 1
